ChEMBL document CHEMBL1201862, “PubChem BioAssay data set” (2004)
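96-well plates; 48 h exposure; 5 concentrations. Endpoints by linear interpolation between flanking doses. Not reached: highest tested concentration assigned. Here, GI50 denotes the concentration required for 50% inhibition of growth.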 Activity calls are given as the source filed them. No stated cut-off is given here; in the data, active = GI50 up to about 1.1 µM and inactive = higher.

Tests used:
Experiment in all cases: NCI anticancer screen, dose series, 48 h
[1] = tested on: MDA-MB-231
[2] = tested on: OVCAR-4
[3] = tested on: SK-MEL-5
[4] = tested on: SF-295
[5] = tested on: UACC-257
[6] = tested on: HCT-116
[7] = tested on: PC-3
[8] = tested on: NCI/ADR-RES
[9] = tested on: SW-620
[10] = tested on: CAKI-1
[11] = tested on: COLO 205
[12] = tested on: IGROV-1
[13] = tested on: A498
[14] = tested on: SK-MEL-28
[15] = tested on: HT-29
[16] = tested on: EKVX
[17] = tested on: HCT-15
[18] = tested on: MDA-MB-435
[19] = tested on: NCI-H522
[20] = tested on: Malme-3M

For `CC(=O)Nc1ccc(-c2nc3ccccc3s2)cc1C`, the GI50 [1] was 20 µM (inactive), the GI50 [2] was 42.5 µM (inactive) and the GI50 [3] was 58.9 µM (inactive). For the same compound, the GI50 [4] was 40 µM (inactive), the GI50 [5] was 69.7 µM (inactive) and the GI50 [6] was 78.7 µM (inactive). The GI50 [7] was 29 µM (inactive), the GI50 [8] was 42.2 µM (inactive) and the GI50 [9] was > 100 µM (inactive). For the same compound, the GI50 [10] was 18.2 µM (inactive), the GI50 [11] was 45 µM (inactive) and the GI50 [12] was 38.6 µM (inactive). For the same compound, the GI50 [13] was 2.9 µM (inactive), the GI50 [14] was 99.1 µM (inactive) and the GI50 [15] was > 100 µM (inactive). The GI50 [16] was 25.1 µM (inactive), the GI50 [17] was greater than 100 µM and the GI50 [18] was > 100 µM (inactive).
With `CC1=NN(c2nc(N)nc(COc3ccc(N)cc3)n2)C(C)(C)C1` the GI50 [1] was > 100 µM (inactive), the GI50 [2] was > 100 µM (inactive) and the GI50 [3] was > 100 µM (inactive). For the same compound, the GI50 [4] was > 100 µM (inactive), the GI50 [5] was > 100 µM (inactive) and the GI50 [6] was > 100 µM (inactive). The GI50 [7] was > 100 µM (inactive), the GI50 [8] was > 100 µM (inactive) and the GI50 [9] was > 100 µM (inactive). For the same compound, the GI50 [10] was > 100 µM (inactive), the GI50 [11] was > 100 µM (inactive) and the GI50 [12] was > 100 µM (inactive). For the same compound, the GI50 [13] was > 100 µM (inactive), the GI50 [14] was > 100 µM (inactive) and the GI50 [15] was > 100 µM (inactive). For the same compound, the GI50 [16] was > 100 µM (inactive), the GI50 [17] was greater than 100 µM and the GI50 [18] was > 100 µM (inactive).
`Nc1ccc2c(c1)C(=O)c1ccc(F)cc1-2` was tested, and the GI50 [19] was > 100 µM (inactive), the GI50 [1] was > 100 µM (inactive) and the GI50 [2] was > 100 µM (inactive). The GI50 [3] was > 100 µM (inactive), the GI50 [4] was > 100 µM (inactive) and the GI50 [5] was > 100 µM (inactive). The GI50 [6] was 88.5 µM (inactive), the GI50 [7] was > 100 µM (inactive) and the GI50 [8] was > 100 µM (inactive). For the same compound, the GI50 [9] was > 100 µM (inactive), the GI50 [10] was > 100 µM (inactive) and the GI50 [11] was > 100 µM (inactive). For the same compound, the GI50 [12] was > 100 µM (inactive), the GI50 [13] was > 100 µM (inactive) and the GI50 [14] was > 100 µM (inactive). The GI50 [15] was > 100 µM (inactive), the GI50 [16] was 72.4 µM (inactive) and the GI50 [17] was greater than 100 µM. For the same compound, the GI50 [18] was > 100 µM (inactive).
In the case of `CCOC(=O)Cc1nnc2c(-c3ccccc3)nc3ccccc3n12`, the GI50 [1] is reported as 19.2 µM (inactive), the GI50 [2] is reported as > 100 µM (inactive) and the GI50 [3] is reported as > 100 µM (inactive). The GI50 [5] was > 100 µM (inactive), the GI50 [6] was 35.4 µM (inactive) and the GI50 [7] was 34.5 µM (inactive). For the same compound, the GI50 [8] was 90.6 µM (inactive), the GI50 [9] was > 100 µM (inactive) and the GI50 [11] was > 100 µM (inactive). For the same compound, the GI50 [12] was 85.7 µM (inactive), the GI50 [13] was 52.5 µM (inactive) and the GI50 [14] was > 100 µM (inactive). For the same compound, the GI50 [15] was > 100 µM (inactive), the GI50 [16] was 27.9 µM (inactive) and the GI50 [17] was 56.2 µM. For the same compound, the GI50 [18] was > 100 µM (inactive) and the GI50 [20] was > 100 µM (inactive).
With `CCCCCCCCCCN(CCCCCCCCCC)C(=O)COc1c2cc(C(C)(C)C)cc1Cc1cc(C(C)(C)C)cc(c1OCC(=O)N(CCCCCCCCCC)CCCCCCCCCC)Cc1cc(C(C)(C)C)cc(c1OCC(=O)N(CCCCCCCCCC)CCCCCCCCCC)Cc1cc(C(C)(C)C)cc(c1OCC(=O)N(CCCCCCCCCC)CCCCCCCCCC)C2` the GI50 [19] was 3.18 µM (inactive), the GI50 [1] was 17.6 µM (inactive) and the GI50 [2] was 10.4 µM (inactive). The GI50 [3] was 13.5 µM (inactive), the GI50 [4] was 10.1 µM (inactive) and the GI50 [5] was 15.6 µM (inactive). For the same compound, the GI50 [6] was 2.54 µM (inactive), the GI50 [7] was 9.93 µM (inactive) and the GI50 [8] was 14.8 µM (inactive). For the same compound, the GI50 [9] was 1.93 µM (inactive), the GI50 [11] was 15.8 µM (inactive) and the GI50 [12] was 12.4 µM (inactive). The GI50 [13] was 15.5 µM (inactive), the GI50 [14] was 11.3 µM (inactive) and the GI50 [15] was 2.34 µM (inactive). For the same compound, the GI50 [16] was 12.1 µM (inactive), the GI50 [17] was 8.77 µM and the GI50 [18] was 12.9 µM (inactive). For the same compound, the GI50 [20] was 15 µM (inactive).
With `CN1C(=O)C(c2c[nH]c3ccccc23)N(C)C(=O)C1c1c[nH]c2ccccc12` (centres undefined) the GI50 [19] was > 100 µM (inactive), the GI50 [1] was 34.2 µM (inactive) and the GI50 [2] was > 100 µM (inactive). The GI50 [3] was > 100 µM (inactive), the GI50 [4] was > 100 µM (inactive) and the GI50 [5] was > 100 µM (inactive). The GI50 [6] was > 100 µM (inactive), the GI50 [7] was > 100 µM (inactive) and the GI50 [8] was > 100 µM (inactive). The GI50 [9] was > 100 µM (inactive), the GI50 [10] was > 100 µM (inactive) and the GI50 [11] was > 100 µM (inactive). For the same compound, the GI50 [12] was > 100 µM (inactive), the GI50 [14] was > 100 µM (inactive) and the GI50 [15] was > 100 µM (inactive). The GI50 [16] was > 100 µM (inactive), the GI50 [17] was greater than 100 µM and the GI50 [18] was > 100 µM (inactive). The GI50 [20] was > 100 µM (inactive).
In the case of `CSc1ncc2c(C#N)c3n(C)c4ccccc4n3c(=O)c2n1`, the GI50 [1] is reported as > 100 µM (inactive), the GI50 [2] is reported as > 100 µM (inactive) and the GI50 [3] is reported as > 100 µM (inactive). The GI50 [4] was > 100 µM (inactive), the GI50 [5] was > 100 µM (inactive) and the GI50 [6] was > 100 µM (inactive). The GI50 [7] was > 100 µM (inactive), the GI50 [8] was > 100 µM (inactive) and the GI50 [9] was > 100 µM (inactive). The GI50 [10] was > 100 µM (inactive), the GI50 [11] was > 100 µM (inactive) and the GI50 [12] was > 100 µM (inactive). For the same compound, the GI50 [13] was > 100 µM (inactive), the GI50 [14] was > 100 µM (inactive) and the GI50 [15] was > 100 µM (inactive). For the same compound, the GI50 [16] was > 100 µM (inactive), the GI50 [17] was greater than 100 µM and the GI50 [18] was > 100 µM (inactive). The GI50 [20] was > 100 µM (inactive).
